Laboratory results reported in patent US11584744B2 (UNIVERSITY OF WASHINGTON, priority 2017, dated 2023).
Converted amounts (≈) assume the structure as drawn. “And” between values parts separate entries of the source, which are not always exact repeats. Equal entries are not always repeated. Where two headings read alike, the source gives them in different places.

Legend:
MetRS (C. parvum) = MetRS (C. parvum) (Cryptosporidium parvum, UniProt Q5CVN0); test: MetRS (C. parvum) enzyme inhibition; assay type: biochemical; details: read-out: (C) MetRS (C. parvum) IC50
Chain of MetRS (C. parvum) (Q5CVN0 entry or part of it): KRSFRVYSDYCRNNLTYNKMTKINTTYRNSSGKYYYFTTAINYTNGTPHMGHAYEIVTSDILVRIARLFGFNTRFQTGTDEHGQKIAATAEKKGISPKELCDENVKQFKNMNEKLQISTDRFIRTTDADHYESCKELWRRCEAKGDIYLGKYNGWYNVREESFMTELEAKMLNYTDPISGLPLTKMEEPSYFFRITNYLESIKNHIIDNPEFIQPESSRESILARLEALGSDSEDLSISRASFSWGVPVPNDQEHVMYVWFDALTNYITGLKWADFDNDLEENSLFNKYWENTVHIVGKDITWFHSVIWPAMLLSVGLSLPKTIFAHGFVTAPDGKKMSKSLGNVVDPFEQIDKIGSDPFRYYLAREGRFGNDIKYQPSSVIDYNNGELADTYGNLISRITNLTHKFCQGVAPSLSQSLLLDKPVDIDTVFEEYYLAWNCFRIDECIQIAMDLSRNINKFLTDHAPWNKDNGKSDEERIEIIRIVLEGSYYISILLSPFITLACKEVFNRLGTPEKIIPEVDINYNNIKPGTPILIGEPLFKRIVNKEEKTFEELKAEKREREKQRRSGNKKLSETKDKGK

[1] = test system: S. aureus MRSA (ATCC 33591); test: MIC susceptibility testing; assay type: cell-based, Staphylococcus aureus; details: Staphylococcus aureus, MRSA ATCC33591; read-out: (G) MRSA (ATCC33591) MIC
Summary of the method: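 CLSI broth microdilution with two-fold compound dilutions, in triplicate; cells added in medium at 1×10^6 CFUs/mL, DMSO ≤0.5%. Media: MHB for S. aureus, CA-MHB for E. coli and E. faecium, CA-MHB plus 3% laked horse blood for S. pyogenes (5% CO2).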

T. cruzi = T. cruzi growth inhibition; assay type: cell-based, Trypanosoma cruzi; details: read-out: (E) T. cruzi EC50
[2] = test system: E. faecium VRE (ATCC 51559); test: MIC susceptibility testing; assay type: cell-based, Enterococcus faecium; details: E. faecium ATCC 51559; for MIC: Enterococcus faecium, read-out: (I) E. faecium (ATCC 51559) MIC
From the text: Media and culture conditions. Mueller Hinton broth (MHB), cation adjusted Mueller Hinton broth (CA-MHB), and Brain Heart Infusion broth (BHI) were purchased from Becton Dickinson (Franklin Lakes, N.J.). Tryptic soy agar (TSA) plates, TSA with 5% sheep blood plates, and CA-MHB with 3% laked horse blood were purchased from Remel (San Diego, Calif.). MHB was used to assay all Staphylococcus aureus strains. CA-MHB was used for Staphylococcus epidermidis, Enterococcus faecalis, Enterococcus faecium, Escherichia coli, and Pseudomonas aeruginosa. CA-MHB supplemented with 3% laked horse blood was used for Streptococcus pneumoniae and Streptococcus pyogenes. Staphylococcus, Enterococcus, Escherichia, and Pseudomonas strains were cultured at 37° C. with ambient air. Streptococcus strains were cultured in 37° C. with 5% CO2. Separate conditions for radiolabeled precursor uptake assays are described below.
Susceptibility testing: Minimum inhibitory concentration (MIC) determinations were performed in triplicate in 96-well round bottom microtiter plates (Corning, Corning N.Y.) as described by the Clinical and Laboratory Standards Institute (CLSI). Serial two-fold dilutions of compounds were added to plates in 50 μL volumes. An additional 50 μL of media containing bacterial cells (1×10^6 CFUs/mL) was then added to each well. Maximum DMSO concentrations were 0.5%. Plates were incubated at 37° C. for at least 18 h before reading the susceptibility result by optical absorbance (OD600) using a BioTek ELx800. The lowest concentration causing ≥90% growth inhibition compared to the untreated control was recorded as the MIC (and also corresponded to the visual MIC). MICs were measured at least twice and the higher value (if different) was recorded herein.

T. brucei = T. brucei growth inhibition; assay type: cell-based, Trypanosoma brucei; details: read-out: (D) T. brucei EC50
C. parvum = C. parvum growth inhibition; assay type: cell-based, Cryptosporidium parvum; details: read-out: (J) C. parvum EC50
[3] = test system: S. aureus MSSA (ATCC 29213); test: MIC susceptibility testing; assay type: cell-based, Staphylococcus aureus; details: S. aureus ATCC 29213; for MIC: Staphylococcus aureus, read-out: (F) S. aureus (ATCC 29213) MIC
MetRS (T. brucei) = biological target: T1, MetRS (T. brucei) (Trypanosoma brucei brucei, UniProt Q38C91); test: MetRS (T. brucei) enzyme inhibition; assay type: biochemical
T1 sequence (Q38C91 1-773): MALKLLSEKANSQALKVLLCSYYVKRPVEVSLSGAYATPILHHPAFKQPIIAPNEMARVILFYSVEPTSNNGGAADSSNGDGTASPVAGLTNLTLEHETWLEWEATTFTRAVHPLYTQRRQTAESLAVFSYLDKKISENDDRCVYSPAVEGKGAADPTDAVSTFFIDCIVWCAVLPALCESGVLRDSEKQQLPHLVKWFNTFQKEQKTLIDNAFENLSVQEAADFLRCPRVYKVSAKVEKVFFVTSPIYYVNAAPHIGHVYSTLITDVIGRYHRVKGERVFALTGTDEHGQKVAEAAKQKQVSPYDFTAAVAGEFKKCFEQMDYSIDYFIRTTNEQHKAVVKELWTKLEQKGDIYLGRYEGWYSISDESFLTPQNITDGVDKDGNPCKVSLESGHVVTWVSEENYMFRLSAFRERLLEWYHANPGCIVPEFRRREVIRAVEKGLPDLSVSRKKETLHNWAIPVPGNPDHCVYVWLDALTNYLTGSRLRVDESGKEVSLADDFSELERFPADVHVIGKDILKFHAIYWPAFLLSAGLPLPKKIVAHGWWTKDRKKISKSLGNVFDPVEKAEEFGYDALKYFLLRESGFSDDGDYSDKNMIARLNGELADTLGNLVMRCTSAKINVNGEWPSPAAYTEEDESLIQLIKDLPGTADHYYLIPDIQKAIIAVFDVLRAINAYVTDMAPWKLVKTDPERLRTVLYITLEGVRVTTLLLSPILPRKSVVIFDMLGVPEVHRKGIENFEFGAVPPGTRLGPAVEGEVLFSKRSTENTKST

| IC50 (MetRS (C. parvum)) [nM] | MIC [1] [µg/mL] | EC50 (T. cruzi; Trypanosoma cruzi) [nM] | MIC [2] [µg/mL] | EC50 (T. brucei; Trypanosoma brucei) [nM] | EC50 (C. parvum; Cryptosporidium parvum) [nM] | (F) S. aureus (ATCC 29213) MIC [3] | MIC [3] [µg/mL] | IC50 (MetRS (T. brucei)) [nM] | EC50 (T. brucei) [nM] | EC50 (T. cruzi) [nM] | EC50 (C. parvum) [nM] | (I) E. faecium (ATCC 51559) MIC [2] [µg/mL] | Compound |
| --- | --- | --- | --- | --- | --- | --- | --- | --- | --- | --- | --- | --- | --- |
| 59.3 |  | 2600 | 0.691 (≈ 1.39 µM) | 11.6 | > 2000 | 3.12, μg/ml and 3.27 μg/ml | > 2.5 | < 40 |  |  |  |  | COC(=O)Cn1c(C(O)c2ccc(Cl)cc2Cl)cn(Cc2nc3ccc(Cl)nc3[nH]2)c1=O (centres unmarked) [Compound 2217, methyl 2-(3-((5-chloro-3H-imidazo[4,5-b]pyridin-2-yl)methyl)-5-((2,4-dichlorophenyl)(hydroxy)methyl)-2-oxo-2,3-dihydro-1H-imidazol-1-yl)acetate] |
| < 40 |  | 133 | 0.0246 (≈ 0.0569 µM) |  | > 2000 | 0.0371 µg/mL | 0.0609 (≈ 0.141 µM) | < 40 |  |  |  |  | O=c1n(Cc2nc3ccc(F)nc3[nH]2)cc(Cc2ccc(Cl)cc2Cl)n1C1CC1 [Compound 2070, 3-cyclopropyl-4-[(2,4-dichlorophenyl)methyl]-1-({5-fluoro-1H-imidazo[4,5-b]pyridin-2-yl}methyl)-2,3-dihydro-1H-imidazol-2-one] |
| 49.2 |  | 245 | 1.52 (≈ 3.17 µM) | 14.5 | 1840 | 3.02 µg/mL | > 2.5 |  | 26.9 |  |  |  | O=c1n(Cc2nc3nc(Cl)ccc3[nH]2)cc(Cc2ccc(Cl)cc2Cl)n1CC1(O)CC1 [Compound 2225, 1-({5-chloro-1H-imidazo[4,5-b]pyridin-2-yl}methyl)-4-[(2,4-dichlorophenyl)-methyl]-3-[(1-hydroxycyclopropyl)methyl]-2,3-dihydro-1H-imidazol-2-one] |
| 45.7 |  | 236 | 0.512 (≈ 1.07 µM) | 3.03 | > 2000 | 1.33, μg/ml and 1.65 μg/ml | 1.72 (≈ 3.58 µM) | < 40 |  |  |  | 0.426 | CC(C)(N)Cn1c(Cc2ccc(Cl)cc2Cl)cn(Cc2nc3nc(Cl)ccc3[nH]2)c1=O [Compound 2212, 5-(2,4-dichlorobenzyl)-1-(2-amin0-2-methylpropyl)-3-((5-chloro-1H-imidazo[4,5-b]pyridin-2-yl)methyl)-1H-imidazol-2(3H)-one] |
| 40.8 |  | 491 | 1.98 (≈ 4.05 µM) | 81.8 | > 2000 |  |  |  |  |  |  | 2.23 | COc1ccc(Cc2cn(Cc3nc4c(C)c(Cl)ccc4[nH]3)c(=O)n2CC(C)(C)O)c(Cl)c1 [Compound 2248, 4-[(2-chloro-4-methoxyphenyl)methyl]-1-[(5-chloro-4-methyl-1H-1,3-benzodiazol-2-yl)methyl]-3-(2-hydroxy-2-methylpropyl)-2,3-dihydro-1H-imidazol-2-one] |
| < 40 | 0.405 (≈ 0.966 µM) | 176 |  | 9.56 | 620 |  | 0.254 (≈ 0.606 µM) | < 40 |  |  |  |  | CCn1c(Cc2ccc(Cl)cc2Cl)cn(Cc2cc3nc(F)ccc3[nH]2)c1=O [Compound 2112, 5-(2,4-dichlorobenzyl)-1-ethyl-3-((5-fluoro-1H-pyrrolo[3,2-b]pyridin-2-yl)methyl)-1H-imidazol-2(3H)-one] |

More lines, now with the values behind:

| Compound | IC50 (MetRS (C. parvum)) [nM] | MIC [1] [µg/mL] | EC50 (T. cruzi; Trypanosoma cruzi) [nM] | MIC [2] [µg/mL] | EC50 (T. brucei; Trypanosoma brucei) [nM] | EC50 (C. parvum; Cryptosporidium parvum) [nM] | (F) S. aureus (ATCC 29213) MIC [3] | MIC [3] [µg/mL] | IC50 (MetRS (T. brucei)) [nM] | EC50 (T. brucei) [nM] | EC50 (T. cruzi) [nM] | EC50 (C. parvum) [nM] | (I) E. faecium (ATCC 51559) MIC [2] [µg/mL] |
| --- | --- | --- | --- | --- | --- | --- | --- | --- | --- | --- | --- | --- | --- |
| COc1ccc(-c2cccc3c2CN(Cc2nc4cc(Cl)ccc4[nH]2)C3=O)c(Cl)c1 [Compound 2232, 2-((5-chloro-1H-benzo[d]imidazol-2-yl)methyl)-4-(2-chloro-4-methoxyphenyl)isoindolin-1-one] | 53.9 | 0.448 (≈ 1.02 µM) | 244 | 0.415 (≈ 0.947 µM) | 71.3 | > 2000 |  |  |  |  |  |  |  |
| COc1ccc(-c2cnn3c2CN(Cc2nc4nc(Cl)ccc4[nH]2)CC3)c(Cl)c1 [Compound 2172, 5-chlor0-2-((3-(2-chloro-4-methoxyphenyl)-6,7-dihydropyrazolo[1,5-a]pyrazin-5(4H)-yl)methyl)-1H-imidazo[4,5-b]pyridine] | < 40 | 1.32 (≈ 3.07 µM) | 213 | 0.467 (≈ 1.09 µM) | 29.3 |  | 0.898 µg/mL | 1.69 (≈ 3.94 µM) | < 40 | 35 |  |  |  |
| COc1ccc(-c2cccc3c2CN(Cc2nc4nc(C)nc(N)c4[nH]2)C3=O)c(Cl)c1 [Compound 2251, 2-((6-amin0-2-methyl-7H-purin-8-yl)methyl)-4-(2-chloro-4-methoxyphenyl)isoindolin-1-one] | < 40 |  | 811 | > 4 | 166 | > 2000 |  |  |  |  |  |  |  |
| COc1cc(Cl)c(-c2nccc3nc(Cc4nc5nc(Cl)ccc5[nH]4)cn23)cc1OC [Compound 2246, 2-({5-chloro-1H-imidazo[4,5-b]pyridin-2-yl}methyl)-5-(2-chloro-4,5-dimethoxyphenyl)imidazo[1,2-c]pyrimidine] | 55.6 | 0.115 (≈ 0.253 µM) | 17.9 |  | 6.68 | 359 | 0.497 µg/mL | 0.277 (≈ 0.608 µM) |  | 5.68 | 20.6 | 300 |  |
| COc1ccc(-c2nccn3c(=S)n(Cc4nc5nc(Cl)ccc5[nH]4)cc23)c(Cl)c1 [Compound 2250, 2-({5-chloro-1H-imidazo[4,5-b]pyridin-2-yl}methyl)-8-(2-chloro-4-methoxyphenyl)-2H,3H-imidazo[1,5-a]pyrazine-3-thione] |  |  |  | 1.35 (≈ 2.95 µM) | 28.9 |  |  |  |  |  |  |  | 1.01 |
| COc1cc(Cl)c(-c2nccc3nc(Cc4nc5c(Cl)c(Cl)ccc5[nH]4)cn23)cc1OC [Compound 2255, 6,7-dichlor0-2-{[5-(2-chloro-4,5-dimethoxyphenyl)imidazo[1,2-c]pyrimidin-2-yl]methyl}-1H-1,3-benzodiazole] | 277 | 1.82 (≈ 3.72 µM) | 165 |  | 71.5 | > 2000 | 2.93 µg/mL | 1.82 (≈ 3.72 µM) |  |  |  |  |  |
| COC(=O)Nc1ccc(-c2ccc(OC)cc2Cl)n2cc(Cc3nc4ccc(Cl)cc4[nH]3)nc12 [Compound 2181, methyl N-{2-[(6-chloro-1H-1,3-benzodiazol-2-yl)methyl]-5-(2-chloro-4-methoxyphenyl)imidazo[1,2-a]pyridin-8-yl}carbamate] | 52.9 | 0.822 (≈ 1.66 µM) | 538 | 0.694 (≈ 1.4 µM) | 61.1 |  |  |  | < 40 |  |  |  |  |
| COc1ccc(-c2cccc3c2CN(Cc2nc4c(N)ncnc4[nH]2)C3=O)c(Cl)c1 [Compound 2239, 2-((6-amino-9H-purin-8-yl)methyl)-4-(2-chloro-4-methoxyphenyl)isoindolin-1-one] | < 40 | > 2 | 3880 |  | 267 | > 2000 |  | > 2 | < 40 |  |  |  |  |
